Experimental data as given in US7408065B2, “P2X7 receptor antagonists and their use” (AstraZeneca AB, priority 2003, dated 2008).

How the values were obtained:
P2X7 receptor = biological target: T1, P2X7 receptor (Homo sapiens, UniProt Q99572); test: P2X7 receptor antagonist activity: bbATP-induced ethidium bromide fluorescence in THP-1 cells; type: cell-based; conditions: THP-1 cells; negative logarithm of concentration reducing bbATP agonist activity by 50%; ethidium bromide fluorescence; 37° C., one hour; read-out: pIC50 (converted)
T1 construct: 200 μl of a suspension of THP-1 cells; endogenous in cells; host or cells: THP-1 cells
T1 sequence (Q99572 1-595): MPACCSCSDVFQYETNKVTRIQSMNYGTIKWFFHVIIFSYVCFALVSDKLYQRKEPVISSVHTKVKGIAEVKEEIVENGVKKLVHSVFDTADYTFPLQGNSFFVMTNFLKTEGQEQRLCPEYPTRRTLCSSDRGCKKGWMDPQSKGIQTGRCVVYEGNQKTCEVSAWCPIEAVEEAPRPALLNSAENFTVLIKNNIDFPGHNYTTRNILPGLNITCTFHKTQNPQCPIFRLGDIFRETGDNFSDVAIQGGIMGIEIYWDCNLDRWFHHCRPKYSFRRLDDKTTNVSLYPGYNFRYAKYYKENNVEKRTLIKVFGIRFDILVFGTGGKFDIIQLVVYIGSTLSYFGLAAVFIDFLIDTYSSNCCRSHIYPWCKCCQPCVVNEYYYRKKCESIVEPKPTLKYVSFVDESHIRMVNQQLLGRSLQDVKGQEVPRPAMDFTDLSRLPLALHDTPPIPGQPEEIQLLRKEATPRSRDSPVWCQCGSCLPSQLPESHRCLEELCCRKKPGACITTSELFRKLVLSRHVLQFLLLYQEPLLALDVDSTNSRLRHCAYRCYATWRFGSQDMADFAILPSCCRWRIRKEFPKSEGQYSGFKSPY
Method: Consequently, when the receptor is activated using bbATP in the presence of ethidium bromide (a fluorescent DNA probe), an increase in the fluorescence of intracellular DNA-bound ethidium bromide is observed. The increase in fluorescence can be used as a measure of P2X7 receptor activation and therefore to quantify the effect of a compound on the P2X7 receptor.
In this manner, each of the title compounds of the Examples was tested for antagonist activity at the P2X7 receptor. Thus, the test was performed in 96-well flat bottomed microtitre plates, the wells being filled with 250 μl of test solution comprising 200 μl of a suspension of THP-1 cells (2.5×10^6 cells/ml) containing 10^−4M ethidium bromide, 25 μl of a high potassium buffer solution containing 10^−5M bbATP, and 25 μl of the high potassium buffer solution containing 3×10^−5M test compound. The plate was covered with a plastics sheet and incubated at 37° C. for one hour. […] For the purposes of comparison, bbATP (a P2X7 receptor agonist) and pyridoxal 5-phosphate (a P2X7 receptor antagonist) were used separately in the test as controls.

## O=C(CC1CCCCC1)Nc1c(Cl)ccc2nc(N3CCC(c4noc(=O)[nH]4)CC3)ccc12 [Example 102, N-[6-Chloro-2-[4-(4,5-dihydro-5-oxo-1,2,4-oxadiazol-3-yl)-1-piperidinyl]-5-quinolinyl]-cyclohexaneacetamide]
other
  melting point: 233 to 235 °C
P2X7 receptor
  IC50: 200 nM
